Test: BIC plasma pharmacokinetics, Phase 1 open-label single-dose DDI study GS-US-380-3909 (B/F/TAF 50/200/25 mg with antacid or mineral supplements)
Type: in vivo, human
Details: for Cmax, reference GLSM: BIC alone (N = 14); for half-life / Vd/F / AUC(0-inf): both sexes, human, plasma, oral; for half-life: BIC T1/2, median (Q1, Q3); for Vd/F: BIC VZ/F; for Vd/F / AUC(0-inf): mean (%CV); for AUC(0-inf): BIC plasma AUCinf
Description: Eligible participants were adult (18–45 years) males and non-pregnant, non-lactating females in good general health at a screening evaluation performed no more than 28 days before the first study dose. […] Full eligibility criteria are available in the supplement. All prescription and over-the-counter medications except vitamins, acetaminophen, ibuprofen, and hormonal contraceptives were not permitted during study participation. Three dosing cohorts were evaluated (Table 1). […] Vitamins and/or other supplements were not permitted on the dosing day. […] Participants received maximum-strength antacid oral suspension (four teaspoons; 20 mL; 1,600 mg aluminum hydroxide/1,600 mg magnesium hydroxide/160 mg simethicone; referred to as “aluminum/magnesium-containing antacid”) on Day 9, calcium carbonate (1,200 mg; 2 × 600 mg tablets) on Day 17, and ferrous fumarate (1 × 324 mg tablet) on Day 25. […] All samples were analyzed within the timeframe determined using frozen stability storage data. […] PK parameters were estimated using Phoenix WinNonlin software (Version 6.4, Pharsight Corporation, Princeton, NJ, USA) using standard noncompartmental analysis methods. […] The estimated 90% CIs were compared to a prespecified lack of DDI boundary of 70%–143%. […] A minimum of 12 evaluable participants in each cohort was calculated to be needed to reject the null hypothesis (i.e., the 90% CI for the GLSM ratio for each PK parameter was outside the prespecified boundary) with ≥90% power.

[1] = Cohort 1 fasted, B/F/TAF + calcium carbonate simultaneous, N = 14
[2] = Cohort 1 fasted, B/F/TAF alone, N = 14
[3] = Cohort 1 fasted, simultaneous aluminum/magnesium-containing antacid
[4] = Cohort 1 fasted, simultaneous calcium carbonate
[5] = Cohort 1 fasted, simultaneous ferrous fumarate
[6] = Cohort 2 fasted, B/F/TAF 2 hours after aluminum/magnesium-containing antacid
[7] = Cohort 2 fasted, B/F/TAF 2 hours after aluminum/magnesium-containing antacid, N = 13
[8] = Cohort 2 fasted, B/F/TAF 2 hours before aluminum/magnesium-containing antacid, N = 13
[9] = Cohort 2 fasted, B/F/TAF alone, N = 14
[10] = Cohort 3, B/F/TAF alone (fasted), N = 14
[11] = Cohort 3 fed, B/F/TAF + aluminum/magnesium-containing antacid simultaneous, N = 14
[12] = Cohort 3 fed, simultaneous aluminum/magnesium-containing antacid
[13] = Cohort 1 fasted, B/F/TAF + aluminum/magnesium-containing antacid simultaneous, N = 14
[14] = Cohort 1 fasted, B/F/TAF + ferrous fumarate simultaneous, N = 14
[15] = Cohort 3 fed, B/F/TAF + ferrous fumarate simultaneous, N = 14

## O=C(NCc1c(F)cc(F)cc1F)c1cn2c(c(O)c1=O)C(=O)N1[C@H]3CC[C@H](C3)O[C@@H]1C2 [BIC, bictegravir]
[1]
  BIC T1/2, median (Q1, Q3): 21.0 (17.6, 25.0) h
  BIC plasma Tmax, median (Q1, Q3): 1.8 (1.5, 4.0) h
  Vd/F: 21.7 L
  AUC(0-inf): 85000 ng·h/mL
[2]
  BIC plasma AUCinf, mean (%CV): 121.9 (24.4) µg*h/mL
  half-life: 18.9 h
  Vd/F: 11.8 L
Cohort 1 fasted
  Cmax, reference GLSM: 5540 ng/mL
[3]
  Delay of median Tmax compared with B/F/TAF alone: 1 h
  Increase in mean BIC CL/F compared with B/F/TAF alone: 404%
  Increase in mean BIC Vz/F compared with B/F/TAF alone: 421%
  Reduction in BIC AUCinf compared with B/F/TAF alone: 79%
  Reduction in BIC C24 compared with B/F/TAF alone: 78%
  Reduction in BIC Cmax compared with B/F/TAF alone: 80%
[4]
  Increase in mean BIC CL/F compared with B/F/TAF alone: 56%
  Increase in mean BIC Vz/F compared with B/F/TAF alone: 84%
  Reduction in BIC AUCinf compared with B/F/TAF alone: 33%
  Reduction in BIC C24 compared with B/F/TAF alone: 35%
  Reduction in BIC Cmax compared with B/F/TAF alone: 42%
[5]
  Delay of median Tmax compared with B/F/TAF alone: 1.5 h
  Increase in mean BIC CL/F compared with B/F/TAF alone: 174%
  Increase in mean BIC Vz/F compared with B/F/TAF alone: 216%
  Reduction in BIC AUCinf compared with B/F/TAF alone: 63%
  Reduction in BIC C24 compared with B/F/TAF alone: 63%
  Reduction in BIC Cmax compared with B/F/TAF alone: 71%
Cohort 2 fasted, B/F/TAF 2 h before aluminum/magnesium-containing antacid, N = 14
  Cmax, test GLSM: 5460 ng/mL
[6]
  Decrease in BIC AUCinf compared with B/F/TAF alone: 52%
  Decrease in BIC C24 compared with B/F/TAF alone: 53%
  Decrease in BIC Cmax compared with B/F/TAF alone: 59%
  Delay of median Tmax compared with B/F/TAF alone: 1 h
  Increase in mean BIC CL/F compared with B/F/TAF alone: 124%
  Increase in mean BIC VZ/F compared with B/F/TAF alone: 180%
[7]
  BIC plasma Tmax, median (Q1, Q3): 2.0 (1.5, 3.0) h
  half-life: 24.2 h
  Vd/F: 31.2 L
  AUC(0-inf): 67700 ng·h/mL
Cohort 2 fasted, B/F/TAF 2 hours before aluminum/magnesium-containing antacid
  Delay of median Tmax compared with B/F/TAF alone: 1.5 h
[8]
  BIC plasma Tmax, median (Q1, Q3): 1.5 (1.5, 2.0) h
  half-life: 21.8 h
  Vd/F: 14.4 L
  AUC(0-inf): 116000 ng·h/mL
[9]
  BIC T1/2, median (Q1, Q3): 20.8 (16.5, 22.8) h
  BIC plasma Tmax, median (Q1, Q3): 3.0 (2.0, 3.0) h
  Vd/F: 11.2 L
  AUC(0-inf): 133000 ng·h/mL
[10]
  BIC T1/2, median (Q1, Q3): 18.0 (17.5, 19.9) h
  BIC plasma Tmax, median (Q1, Q3): 1.5 (1.5, 2.0) h
Cohort 3, fasted
  Cmax, reference GLSM: 4540 ng/mL
[11]
  BIC T1/2, median (Q1, Q3): 17.9 (16.9, 20.2) h
  Vd/F: 29.1 L
[12]
  Decrease in BIC AUCinf compared with B/F/TAF alone under fasted conditions: 47%
  Decrease in BIC C24 compared with B/F/TAF alone under fasted conditions: 44%
  Decrease in BIC Cmax compared with B/F/TAF alone under fasted conditions: 49%
  Delay of median Tmax compared with B/F/TAF alone under fasted conditions: 2 h
  Increase in mean BIC CL/F compared with B/F/TAF alone under fasted conditions: 89%
  Increase in mean BIC Vz/F compared with B/F/TAF alone under fasted conditions: 89%
Cohort 3 fed, simultaneous calcium carbonate
  Delay of median Tmax compared with B/F/TAF alone under fasted conditions: 2 h
Cohort 3 fed, simultaneous ferrous fumarate
  Delay of median Tmax compared with B/F/TAF alone under fasted conditions: 2.5 h
[13]
  half-life: 20.2 h
  Vd/F: 61.4 L
  AUC(0-inf): 28000 ng·h/mL
[14]
  half-life: 21.9 h
  Vd/F: 37.3 L
  AUC(0-inf): 46100 ng·h/mL
Cohort 3 fed, B/F/TAF + calcium carbonate simultaneous, N = 14
  half-life: 18.9 h
[15]
  half-life: 19.3 h
  Vd/F: 19.3 L

From article PMC12777568 (Antimicrobial Agents and Chemotherapy, 2025)
